Assay results from patent US20250120975A1, “INTEGRIN INHIBITORS FOR TREATMENT OF PRIMARY SCLEROSING CHOLANGITIS” (Pliant Therapeutics, Inc., priority 2023, published 2025).
Entries after “also recorded” stand apart in the source; their conditions may differ.

Key:
[1] = system: BALB/c.Mdr2−/− mouse model of biliary fibrosis; assay: Liver and kidney biochemistries in serum (ALT, ALP, total bilirubin); type: in vivo; details: 6 weeks
Excerpt: The tissue source is BALBc.Mdr2-/−male mice that were 6 weeks old. The Mdr2(abcb4)−/− mouse model of sclerosing cholangitis has been previously described and is a model of spontaneously progressive hepatic fibrosis in mice with deletion of the biliary phospholipid flippase on fibrosis-susceptible background (Mdr2(abcb4)^−/−. BALB/c mouse). See N. Ikenaga, et al. (2015) Am J Pathol. 185 (2): 325-334, the entire contents of which are hereby incorporated by reference in their entirety.
(S)-4-((2-methoxyethyl)(4-(5,6,7,8-tetrahydro-1,8-naphthyridin-2-yl)butyl)amino)-2-(quinazolin-4-ylamino)butanoic acid (or PBS) was dosed once daily orally at 100 mg/kg, 300 mg/kg or 1000 mg/kg (see Table B-2) starting at 6 weeks after birth of the subject and continuing for 6 weeks. All animals were euthanized and necropsied at the end of week 12.
Determination of ALT, ALP, and total bilirubin was performed as conventional liver and kidney function tests at the clinical biochemistry core (BIDMC).

[2] = system: subjects with PSC and suspected liver fibrosis; assay: Phase 2a INTEGRIS-PSC: PRO-C3 (collagen synthesis); type: in vivo, human
Excerpt: In Parts 1 and 2, plasma, serum, and urine biomarker samples were obtained at predetermined times as indicated in the Schedule of Events (see Table B-4). In Part 3, plasma and serum biomarker samples were obtained at predetermined times as indicated in the Schedule of Events (see Table B-5 and Table B-6). These samples were used to measure specific proteins, nucleotides and/or metabolites that were elevated in subjects with fibrosis, and/or pharmacodynamic markers that could change with inhibition of integrins αVβ6 and αVβ1. The samples were also used to perform exploratory investigations using metabolomic or proteomic methods for use in future studies in subjects with fibrotic diseases.
Absolute and relative changes from Baseline in liver fibrosis biomarkers (including PRO-C3 and ELF) and in ALP are presented in numerical and graphical forms by treatment and dose utilizing data from the timepoints specified in the Schedule of Events. Changes from Baseline to Week 12(Parts 1 and 2) and Week 24 (Part 3) in magnetic resonance (MR)-based liver imaging are also evaluated, as well as changes in PROs.

[3] = system: subjects with PSC and suspected liver fibrosis; assay: Phase 2a INTEGRIS-PSC: Itch Numerical Rating Scale (NRS); type: in vivo, human
Method: In one embodiment is provided a method of reducing itch or pruritus (chronic itching). Itch can be quantified on a 0-10 scale using the Peak Pruritus Numerical Rating Scale (NRS), where 0 is “no itch” and 10 is “worst imaginable itch” over the past 24 hours (Yosipovitch et al., British Journal of Dermatology (2019) 181:761-769, incorporated by reference herein in its entirety). In embodiments, a method of reducing pruritus in a human who has fibrotic liver disease is provided, comprising administering to the human(S)-4-((2-methoxyethyl)(4-(5,6,7,8-tetrahydro-1,8-naphthyridin-2-yl)butyl)amino)-2-(quinazolin-4-ylamino)butanoic acid, or a pharmaceutically acceptable salt thereof. In embodiments, a method of reducing (e.g., ameliorating) pruritus in a human who has fibrotic liver disease (e.g., primary sclerosing cholangitis) is provided, comprising administering to the human(S)-4-((2-methoxyethyl)(4-(5,6,7,8-tetrahydro-1,8-naphthyridin-2-yl)butyl)amino)-2-(quinazolin-4-ylamino)butanoic acid, or a pharmaceutically acceptable salt thereof, as compared to a human who has not been administered(S)-4-((2-methoxyethyl)(4-(5,6,7,8-tetrahydro-1,8-naphthyridin-2-yl)butyl)amino)-2-(quinazolin-4-ylamino)butanoic acid, or a pharmaceutically acceptable salt thereof. […] In further embodiments, pruritus is reduced as measured by a change in itch numerical rating scale from between about 0.8 and about-0.2 at about 12 weeks following a first administration of (S)-4-((2-methoxyethyl)(4-(5,6,7,8-tetrahydro-1,8-naphthyridin-2-yl)butyl)amino)-2-(quinazolin-4-ylamino)butanoic acid, or a pharmaceutically acceptable salt thereof to the human. […]

[4] = system: PCLivS from human liver tissue with biliary fibrosis (PSC, PBC); assay: Fibrotic gene expression (NanoString) in precision cut liver slices; type: cell-based
[5] = ≥1 μM, PCLivS from 10 livers with biliary fibrosis (6 PSC, 4 PBC), 2 days

With COCCN(CCCCc1ccc2c(n1)NCCC2)CC[C@H](Nc1ncnc2ccccc12)C(=O)O [Bexotegrast, (S)-4-((2-methoxyethyl)(4-(5,6,7,8-tetrahydro-1,8-naphthyridin-2-yl)butyl)amino)-2-(quinazolin-4-ylamino)butanoic acid] the “serum alkaline phosphatase levels” value ([1]; 1000 mg/kg, vs vehicle) was “significantly decreased”, the “serum ALT levels” value ([1]; 100, 300, 1000 mg/kg) was “did not change” and the “serum total bilirubin levels” value ([1]; 100, 300, 1000 mg/kg) was “dose dependent trend down”. The “PRO-C3, difference to placebo” value ([2]; 40 mg (p<0.01) and 160 mg (p<0.05), Week 12, Example B-3) was “statistically significant differences from placebo”, the “PRO-C3 levels relative to placebo” value ([2]; 320 mg, Week 12, Example B-4) was “reduction” and the “collagen synthesis (PRO-C3) relative to placebo” value ([2]; all doses (40, 80, 160 mg), Week 12, Example B-3) was “reduced”. The “PRO-C3 relative to the placebo” value ([2]; all doses, statistical significance at Week 12 for 40 mg, 160 mg and pooled groups, Example B-4) was “reduced”, the “Itch Numerical Rating Scale (NRS) score” value ([3]; 320 mg, over 24 weeks, relative to an increase on placebo, Example B-5) was “did not increase; also recorded: stable score” and the “itch (NRS) relative to placebo” value ([3]; 40, 80, 160 mg, Week 12, statistical significance for the 160 mg dose, Example B-3) was “dose dependent reductions”. For the same molecule, the “itch (NRS) relative to the placebo” value ([3]; 40-320 mg, Week 12, statistical significance for the 160 mg, 320 mg groups, Example B-4) was “dose-dependent reductions”, the “inhibition of the TGF-β-driven COLIA2 expression” value ([4]; relative to inhibition with high dose ALK5 inhibitor, PCLivS from 10 livers) was ≤ 43% and the “significant reduction in expression of COLIA2” value [4, 5] was 19%. For the same molecule, the “significant reduction in expression of TGF-81” value [4, 5] was 24% and the “trend down in overall expression of COL3A1” value [4, 5] was 15%.
